Structures are written as SMILES.

The first assay deals with Mitogen-activated protein kinase kinase kinase 5 (Homo sapiens) (UniProt Q99683). The assay is described as follows: MAP3K5 (ASK1) binders by thermal shift, biophysical, DSF, SYPRO orange, recombinant protein (AID 515). As to conditions: at 10 µM, buffer 10 mM HEPES, pH 7.5, NaCl 150 mM, active compounds read high.
Mitogen-activated protein kinase kinase kinase 5 (Homo sapiens), sequence (Q99683 whole entry, looked up): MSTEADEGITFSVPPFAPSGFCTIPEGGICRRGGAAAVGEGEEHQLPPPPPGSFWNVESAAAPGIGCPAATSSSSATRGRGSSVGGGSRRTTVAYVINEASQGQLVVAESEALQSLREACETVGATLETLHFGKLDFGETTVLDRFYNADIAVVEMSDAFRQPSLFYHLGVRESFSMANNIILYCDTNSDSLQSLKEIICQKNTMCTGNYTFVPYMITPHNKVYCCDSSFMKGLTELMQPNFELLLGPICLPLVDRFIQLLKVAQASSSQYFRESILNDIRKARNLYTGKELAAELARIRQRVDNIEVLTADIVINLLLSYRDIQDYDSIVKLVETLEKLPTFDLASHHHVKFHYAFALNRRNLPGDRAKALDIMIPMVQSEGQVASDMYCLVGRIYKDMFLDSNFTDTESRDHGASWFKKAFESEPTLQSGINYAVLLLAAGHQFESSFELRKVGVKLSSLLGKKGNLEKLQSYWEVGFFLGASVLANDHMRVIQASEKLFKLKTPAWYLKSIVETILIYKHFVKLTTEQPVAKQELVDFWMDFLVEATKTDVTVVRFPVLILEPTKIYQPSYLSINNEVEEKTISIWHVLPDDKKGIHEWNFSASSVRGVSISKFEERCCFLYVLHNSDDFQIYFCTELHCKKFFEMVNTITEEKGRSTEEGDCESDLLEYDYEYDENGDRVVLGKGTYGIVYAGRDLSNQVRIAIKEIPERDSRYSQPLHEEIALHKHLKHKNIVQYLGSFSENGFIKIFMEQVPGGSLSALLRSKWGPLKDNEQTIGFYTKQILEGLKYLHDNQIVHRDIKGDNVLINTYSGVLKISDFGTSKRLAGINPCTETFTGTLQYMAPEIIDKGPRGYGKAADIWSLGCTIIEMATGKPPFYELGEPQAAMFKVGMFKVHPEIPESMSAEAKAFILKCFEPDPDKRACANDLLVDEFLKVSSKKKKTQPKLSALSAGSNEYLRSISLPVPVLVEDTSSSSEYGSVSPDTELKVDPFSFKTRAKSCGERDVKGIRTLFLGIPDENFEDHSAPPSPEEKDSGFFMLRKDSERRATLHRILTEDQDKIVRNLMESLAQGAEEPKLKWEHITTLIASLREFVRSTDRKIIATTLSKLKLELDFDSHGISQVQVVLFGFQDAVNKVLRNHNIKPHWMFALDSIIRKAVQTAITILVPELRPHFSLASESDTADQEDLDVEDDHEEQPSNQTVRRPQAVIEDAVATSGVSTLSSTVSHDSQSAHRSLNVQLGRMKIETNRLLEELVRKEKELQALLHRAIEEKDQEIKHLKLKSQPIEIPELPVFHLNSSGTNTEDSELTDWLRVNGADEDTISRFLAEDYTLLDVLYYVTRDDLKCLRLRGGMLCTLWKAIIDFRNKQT
For `Cc1c2ccncc2c(C)c2c1[nH]c1ccccc12`, the Tm shift is 6.3 Celsius.
Take `Cn1cc(/C=C2\C(=O)Nc3ccc(S(N)(=O)=O)cc32)c2ccccc21`: the Tm shift is 10 Celsius.
For the compound `NC1=N/C(=C2/CCNC(=O)c3[nH]c(Br)cc32)C(=O)N1`, the Tm shift was 8.7 Celsius.
Still for that read-out and setting: then `CC1N=C2SC=CN2C(=O)C1CCN1CCC(=C(c2ccccc2)c2ccc(F)cc2)CC1` (stereo not drawn), with 4.8 Celsius; and `Cc1ccc2c(c1)=C(c1[nH]c(=S)[nH]c1O)C(=O)N=2`, with 4.5 Celsius.
The same measure, in the same setting: then `O=Nc1c(-c2c(O)[nH]c3ccc(I)cc23)[nH]c2ccccc12`, with 5.72 Celsius.
Same read-out and setting: then `CCOc1c(Br)ccc2c1sc1nc[nH]c(=O)c12`, with 3.9 Celsius.
Regarding `OCC(O)CCO/N=C1/C(c2c(O)[nH]c3ccccc23)=Nc2ccccc21` (stereo not drawn), the Tm shift is 5.6 Celsius.
Same read-out and setting: with `O=Nc1c(-c2c(O)[nH]c3ccccc23)[nH]c2ccccc12` the figure was 6.1 Celsius; with `Nc1nc(Nc2ccc(S(N)(=O)=O)cc2)nn1C(=S)Nc1c(F)cccc1F`, 16.9 Celsius.
On the same count and under the same terms, with `N#Cc1ccc(-c2cnc3ccc(NC4CCOCC4)nn23)cc1` the figure was 3.5 Celsius; with `O=Nc1c(-c2c(O)[nH]c3ccc(S(O)(O)O)cc23)[nH]c2ccccc12`, 4.04 Celsius; with `O=C(c1ccc(Nc2nccc(-c3cc4ccccc4s3)n2)cc1)N1CCC(N2CCCC2)CC1`, 5.1 Celsius.
In the case of `O=c1c(O)c(-c2ccc(O)c(O)c2)oc2cc(O)cc(O)c12`, the Tm shift is 3.7 Celsius.
As to `COc1cccc(N=Cc2c(O)[nH]c3ccccc23)c1`, the Tm shift is 3.2 Celsius.
On to `O=C(Nc1ccc(N2CCOCC2)cc1)Nc1ccc(Cl)c(Cl)c1`, for which the Tm shift is 5.7 Celsius.
Still for that read-out and setting: with `O=c1[nH]cnc2scc(-c3cccs3)c12` the figure was 3.7 Celsius; with `O=C1Nc2ccccc2/C1=C\c1cnc[nH]1`, 4.76 Celsius.

Still in this assay, the particulars now being: at 10 µM, buffer 10 mM HEPES, pH 7.5, NaCl 150 mM, with 50 µM L-Arg/L-Glu (1:1), active compounds read high.
Regarding `NC1=N/C(=C2/CCNC(=O)c3[nH]c(Br)cc32)C(=O)N1`, the Tm shift was 12.5 Celsius.
Same read-out and setting: then `O=C1c2ccccc2-c2n[nH]c3cccc1c23`, with 8.63 Celsius; and `CC1N=C2SC=CN2C(=O)C1CCN1CCC(=C(c2ccccc2)c2ccc(F)cc2)CC1` (stereo not drawn), with 6.07 Celsius; and `COc1ccc2c(c1)/C(=C/c1cnc[nH]1)C(=O)N2`, with 5.19 Celsius.
On the same count and under the same terms, then `CC(O)(O)C1(O)C[C@@H]2O[C@@]1(C)n1c3ccccc3c3c4c(c5c6ccccc6n2c5c31)C(=O)NC4` (stereo partly drawn), with 14.1 Celsius.
On the same count and under the same terms, then `NC(=O)Nc1sc(-c2ccccc2)cc1C(N)=O`, with 5.94 Celsius.
Turning to `O=C1NCc2c1c1c3ccccc3[nH]c1c1[nH]c3ccccc3c21`, the Tm shift is 8.53 Celsius.
Still for that read-out and setting: with `CCN(CC)CCNC(=O)c1c(C)[nH]c(/C=C2\C(=O)Nc3ccc(Cl)cc32)c1C` the figure was 6.43 Celsius; with `O=C1Nc2ccccc2/C1=C/c1ccc[nH]1`, 5.01 Celsius; with `NC1=N/C(=C2\CCNC(=O)c3[nH]ccc32)C(=O)N1`, 4.65 Celsius.
Regarding `Cc1cc(C=C2C(=O)C=CC2=O)cc(C)c1O`, the Tm shift was 3.1 Celsius.
Same read-out and setting: then `O=Nc1c(-c2c(O)[nH]c3cc(Br)ccc23)[nH]c2ccccc12`, with 8.7 Celsius; and `O=C1NC(=O)c2c1c1c3ccccc3n3c1c1c2c2ccccc2n1[C@@H]1CCC3O1`, with 6.97 Celsius; and `O=c1c(O)c(-c2ccc(O)c(O)c2)oc2cc(O)ccc12`, with 3.96 Celsius.
Same read-out and setting: with `CC(C)(C)c1nc2c3cc[nH]c(=O)c3c3cc(F)ccc3c2[nH]1` the figure was 8.26 Celsius.

The values are drawn from PubChem BioAssay AID515 (SGCOxCompounds, 2006).
